Our source for the IC50 values is US6699887B2, “Anti-HIV pyrazole derivatives” (Hoffmann-La Roche Inc., priority 2000, dated 2004).

As usually defined, the IC50 is the point on the concentration scale where inhibition reaches its midpoint.

Each structure is given as a SMILES string.

One assay concerns the target HIV-1 RT (Human immunodeficiency virus type 1 group M subtype B, UniProt P04585). The assay is described as follows: HIV-1 Reverse Transcriptase Assay: Inhibitor IC50 Determination. It is filed as biochemical. Particulars: purified recombinant enzyme, poly(rA)/oligo(dT)16 template-primer, 37° C. 30 min. The method, then: Assay Method: HIV-1 Reverse Transcriptase Assay: Inhibitor IC50 Determination:
HIV-1 RT assay was carried out in 96-well Millipore filtermat NOB50 plates using purified recombinant enzyme and a poly(rA)/oligo(dT)16 template-primer in a total volume of 50 μL. The assay constituents were 50 mM Tris/HCl, 50 mM NaCl, 1 mM EDTA, 6 mM MgCl2, 5 μM dTTP, 0.1 μCi [^3H] dTTP, 5 μg/ml poly (rA) pre annealed to 2.5 μg/ml oligo (dT)16 and a range of inhibitor concentrations in a final concentration of 10% DMSO. Reactions were initiated by adding 5 nM HIV-1 RT and after incubation at 37° C. for 30 min, they were stopped by the addition of 50 μl ice cold 20%TCA and allowed to precipitate at 4° C. for 30 min. The precipitates were collected by applying vacuum to the plate and sequentially washing with 2×200 μl of 10% TCA and 2×200 μl 70% ethanol. Finally the plates were dried and radioactivity counted in a Wallac Microbeta 1450 after the addition of 15 μl scintillation fluid per well. IC50's were calculated by plotting % inhibition versus log10 inhibitor concentrations.

The subject of another assay is HXB2-strain of HIV. The assay is described as follows: Antiviral assay: protection of HIV-infected MT4 cells from cell death (MTT). Particulars: Human immunodeficiency virus 1, 120 h; MT4 cells infected with HXB2-strain of HIV, 5 days, MTT viability. It is filed as cell-based. The method, then: Anti-HIV antiviral activity was assessed using an adaptation of the method of Pauwels et al. {Pauwels et al., 1988, J Virol Methods 20:309-321}. The method is based on the ability of compounds to protect HIV-infected T lymphoblastoid cells (MT4 cells) from cell-death mediated by the infection. The endpoint of the assay was calculated as the concentration of compound at which the cell viability of the culture was preserved by 50% (‘50% inhibitory concentration’, IC50). The cell viability of a culture was determined by the uptake of soluble, yellow 3-[4,5-dimethylthiazol-2-yl]-2,5-diphenyltetrazolium bromide (MTT) and its reduction to a purple insoluble formazan salt. After solubilization, spectrophotometric methods were employed to measure the amount of formazan product.
MT4 cells were prepared to be in logarithmic-phase growth and a total of 2×10^6 cells infected with the HXB2-strain of HIV at a multiplicity of 0.0001 infectious units of virus per cell in a total volume of between 200-500 microliters. The cells were incubated with virus for one hour at 37° C. before removal of virus. The cells are then washed in 0.01 M phosphate buffered saline, pH 7.2 before being resuspensed in culture medium for incubation in culture with serial dilutions of test compound. The culture medium used was RPMI 1640 without phenol red, supplemented with penicillin, streptomycin, L-glutamine and 10% fetal calf serum (GM10).
Test compounds were prepared as 2 mM solutions in dimethyl sulphoxide (DMSO). Four replicate, serial 2-fold dilutions in GM10 were then prepared and 50 microliters amounts placed in 96-well plates over a final nanomolar concentration range of 625-1.22. Fifty microliters GM10 and 3.5×10^4 infected cells were then added to each well. Control cultures containing no cells (blank), uninfected cells (100% viability; 4 replicates) and infected cells without compound (total virus-mediated cell death; 4 replicates) were also prepared. The cultures were then incubated at 37° C. in a humidified atmosphere of 5% CO2 in air for 5 days.
A fresh solution of 5 mg/mL MTT was prepared in 0.01 M phosphate buffered saline, pH 7.2 and 20 microliters added to each culture. The cultures were further incubated as before for 2 hours. They were then mixed by pipetting up and down and 170 microliters of Triton X-100 in acidified isopropanol (10% v/v Triton X-100 in 1:250 mixture of concentrated HCl in isopropanol). When the formazan deposit was fully solubilized by further mixing, the absorbance (OD) of the cultures was measured at 540 nm and 690 nm wavelength (690 nm readings were used as blanks for artefacts between wells). The percent protection for each treated culture was then calculated from the equation: [formula]
The IC50 can be obtained from graph plots of percent protection versus log10 drug concentration.

Regarding `Cc1nn(C(C)C)c(Sc2cc(Cl)cc(Cl)c2)c1Cc1cccnc1`, the results for the IC50 at HIV-1 RT and in the assay on HXB2-strain of HIV were 572 nM and 14.6 nM, respectively.

`Cc1nn(C(C)C)c(Sc2cccc(Br)c2)c1Cc1ccncc1Cl`: the IC50 on HIV-1 RT was 5200 nM.

On to `Cc1cccc(Sc2c(Cc3ccncc3Cl)c(C)nn2C(C)C)c1`, for which the IC50 at HIV-1 RT was 1080 nM.

On to `Cc1cc(Cc2c(C)nn(C(C)C)c2Sc2cc(Cl)cc(Cl)c2)cc(Cl)n1`, for which the figures for the IC50 on HIV-1 RT and with HXB2-strain of HIV were 880 nM and 28 nM, respectively.

With `COc1cc(Cl)cc(Sc2c(Cc3ccnc(OC)c3)c(C)nn2C(C)C)c1`, the figures for the IC50 on HIV-1 RT and in the assay with HXB2-strain of HIV were 298 nM and 31.5 nM, respectively.

Turning to `Cc1nn(C(C)C)c(Sc2cc(Cl)cc(Cl)c2)c1Cc1ccnc(Cl)c1`, the IC50 is 109 nM on HIV-1 RT and 15 nM with HXB2-strain of HIV.

`Cc1nn(C(C)C)c(Sc2cc(Cl)cc(Cl)c2)c1Cc1ccccn1`: the IC50 was determined as 1070 nM at HIV-1 RT and 75 nM in the assay on HXB2-strain of HIV.

With `CCn1nc(COC)c(Cc2ccccc2)c1Sc1cc(Cl)cc(Cl)c1`, the IC50 at HIV-1 RT stood at 8040 nM; in the assay with HXB2-strain of HIV, 453 nM.

For the compound `Cc1cc(C)cc(Sc2c(Cc3ccncc3F)c(C)nn2C(C)C)c1`, the IC50 on HIV-1 RT was found to be 90 nM; in the assay with HXB2-strain of HIV, 8.1 nM.

For the compound `CCn1nc(C)c(Cc2ccncc2)c1Sc1cc(Cl)cc(Cl)c1`, the IC50 at HIV-1 RT was found to be 84 nM; in the assay with HXB2-strain of HIV, 9 nM.

For `Cc1cc(C)cc(Sc2c(Cc3ccccn3)c(C)nn2C(C)C)c1`, the IC50 amounted to 950 nM on HIV-1 RT and 64 nM with HXB2-strain of HIV.

Consider `Cc1cc(C)cc(Sc2c(Cc3ccncc3Cl)c(C)nn2C(C)C)c1`, for which the half-maximal inhibitory concentration (IC50) on HIV-1 RT turned out to be 607 nM.

Regarding `Cc1nn(C(C)C)c(Sc2cc(Cl)cc(Cl)c2)c1Cc1cnccn1`, the IC50 on HIV-1 RT stood at 270 nM; with HXB2-strain of HIV, 13.9 nM.

Take `Cc1nn(C(C)C)c(Sc2cc(Cl)cc(Cl)c2)c1Cc1ccncn1`: the IC50 on HIV-1 RT was 456 nM; in the assay with HXB2-strain of HIV, 13.5 nM.

In the case of `Cc1nn(C(C)C)c(Sc2cc(Cl)cc(Cl)c2)c1COCc1ccncc1`, the results for the IC50 on HIV-1 RT and in the assay with HXB2-strain of HIV were 112 nM and 3.6 nM, respectively.

For `Cc1cccc(Sc2c(Cc3ccncc3F)c(C)nn2C(C)C)c1`, the IC50 at HIV-1 RT was 480 nM; with HXB2-strain of HIV, 19 nM.

As for `Cc1nn(C(C)C)c(Sc2cc(Cl)cc(Cl)c2)c1COc1cccnc1`, the IC50 turned out to be 313 nM on HIV-1 RT and 110 nM in the assay on HXB2-strain of HIV.

On to `Cc1nn(C(C)C)c(Sc2cc(Cl)cc(Cl)c2)c1COc1ccncc1`, for which the IC50 on HIV-1 RT is 252 nM; with HXB2-strain of HIV it was 20 nM.

As for `Cc1nn(-c2ccccc2)c(Sc2cc(Cl)cc(Cl)c2)c1Cc1ccncc1`, the half-maximal inhibitory concentration (IC50) at HIV-1 RT was 105 nM; in the assay on HXB2-strain of HIV, 36 nM.

In the case of `Cc1nn(C(C)C)c(Sc2cccc(Br)c2)c1Cc1ccncc1F`, the IC50 on HIV-1 RT is 463 nM; in the assay with HXB2-strain of HIV, 19 nM.

For `Cc1nn(C(C)C)c(Sc2cc(Cl)cc(Cl)c2)c1CSc1ccncc1`, the figures for the IC50 at HIV-1 RT and in the assay on HXB2-strain of HIV were 292 nM and 34.1 nM, respectively.

Consider `Cc1nn(C(C)C)c(Sc2cc(Cl)cc(Cl)c2)c1COc1cncc(Cl)c1`, for which the figures for the IC50 at HIV-1 RT and in the assay on HXB2-strain of HIV were 650 nM and 203 nM, respectively.

As to `CCn1nc(C)c(Cc2cncc(Br)c2)c1Sc1cc(Cl)cc(Cl)c1`, the IC50 at HIV-1 RT was 398 nM; with HXB2-strain of HIV it was 124 nM.

Regarding `Cc1nn(C(C)C)c(Sc2cc(Cl)cc(Cl)c2)c1Cc1ccncc1`, the values for the IC50 on HIV-1 RT and in the assay with HXB2-strain of HIV were 76 nM and 2.7 nM, respectively.

For the compound `Cc1nn(C(C)C)c(Sc2cc(Cl)cc(Cl)c2)c1Cc1ccccc1`, the IC50 at HIV-1 RT was 270 nM; in the assay on HXB2-strain of HIV, 24 nM.

Consider `Cc1nn(C(C)C)c(Sc2cc(Cl)cc(Cl)c2)c1COCc1ccccc1`, for which the results for the IC50 on HIV-1 RT and in the assay with HXB2-strain of HIV were 349 nM and 100 nM, respectively.

On to `Cc1nn(-c2ccccc2)c(Sc2cc(Cl)cc(Cl)c2)c1Cc1ccccc1`, for which the half-inhibitory concentration (IC50) at HIV-1 RT was 2060 nM; in the assay on HXB2-strain of HIV it was 403 nM.

On to `Cc1nn(C(C)C)c(Sc2cc(Cl)cc(Cl)c2)c1Cc1ccc(C#N)cc1`, for which the values for the IC50 at HIV-1 RT and with HXB2-strain of HIV were 176 nM and 11.9 nM, respectively.

In the case of `Cc1nn(C(C)C)c(Sc2cc(Cl)cc(Cl)c2)c1Cc1ccncc1F`, the IC50 on HIV-1 RT turned out to be 373 nM; in the assay with HXB2-strain of HIV, 11.1 nM.

Consider `Cc1nn(C(C)C)c(Sc2cc(Cl)cc(Cl)c2)c1Cc1ccncc1Cl`, for which the figures for the IC50 on HIV-1 RT and in the assay on HXB2-strain of HIV were 177 nM and 51.7 nM, respectively.

Consider `Cc1nn(-c2ccccc2)c(Sc2cc(Cl)cc(Cl)c2)c1CCc1ccccc1`, for which the IC50 came out at 3420 nM on HIV-1 RT and 592 nM with HXB2-strain of HIV.
